Test results reported in patent US7317115B2, “Mandelates salts of substituted tetracyclic tetrahydrofuran derivatives” (Janssen Pharmaceutica, N.V., priority 2001, dated 2008).
“Also recorded” adds a separate entry of the source.

Assays:
Type in all cases: physicochemical
[1] = Chemical stability (HPLC and visual inspection after storage); conditions: for HPLC Sum of impurities: in % (unit assumed)
Method: In the chemical stability test program the salts are stored for periods of 2, 4 and 8 weeks under different conditions. These conditions are 40° C./75% RH, 50° C., daylight, RT/5% RH, RT/75% RH, 25° C./60% RH and artificial light. The mandelate salt and the ditoluoyltartrate salt are also stored 8 hours in 0.3 da ICH light. The compounds are analyzed after storage by HPLC and by visual inspection.

[2] = Crystallographic stability (TGA, DSC, IR after storage); for IR: key: ~Ref: identical with reference
Method: The stability of the crystal structure of the salt is studied after storage of the compounds for a period of two weeks at room temperature (RT) under either 5%, 75% and 25° C./60% relative humidity (RH). The samples are analyzed with thermogravimetry (TGA), differential scanning calorimetry (DSC) and infrared spectroscopy (IR).

[3] = Adsorption and desorption of water; conditions: 25° C., different relative humidity; listed as tartrate salt
Method: The adsorption and desorption of water at 25° C. at different conditions of relative humidity is investigated on an amount of ±10 mg of each salt. The weight change as a function of relative humidity is registered.

For “B-(2α,3aα,12bβ)-11-fluoro-3,3a,8,12b-tetrahydro-N-methyl-2H-dibenzo-[3,4:6,7]cyclohepta[1,2-b]furan-2 methanamine [Tartrate]”, the Appearance ([1]; 25° C./60% RH, 4 weeks) was “white”, the “HPLC Sum of impurities” value ([1]; 25° C./60% RH, 4 weeks) was 0.75 and the Appearance ([1]; 25° C./60% RH, 8 weeks) was “white”. For the same substance, the “HPLC Sum of impurities” value ([1]; 25° C./60% RH, 8 weeks) was 0.77, the Appearance ([1]; 40° C./75% RH, 2 weeks) was “white” and the “HPLC Sum of impurities” value ([1]; 40° C./75% RH, 2 weeks) was 0.72. The Appearance ([1]; 40° C./75% RH, 4 weeks) was “white”, the “HPLC Sum of impurities” value ([1]; 40° C./75% RH, 4 weeks) was 0.83 and the Appearance ([1]; 40° C./75% RH, 8 weeks) was “almost white”. The “HPLC Sum of impurities” value ([1]; 40° C./75% RH, 8 weeks) was 0.93, the Appearance ([1]; 50° C., 2 weeks) was “white” and the “HPLC Sum of impurities” value ([1]; 50° C., 2 weeks) was 0.72. For the same substance, the Appearance ([1]; 50° C., 4 weeks) was “white”, the “HPLC Sum of impurities” value ([1]; 50° C., 4 weeks) was 0.77 and the Appearance ([1]; 50° C., 8 weeks) was “almost white”. The “HPLC Sum of impurities” value ([1]; 50° C., 8 weeks) was 0.79, the Appearance ([1]; Artificial light (2 weeks)) was “white” and the “HPLC Sum of impurities” value ([1]; Artificial light (2 weeks)) was 0.79. For the same substance, the Appearance ([1]; Daylight, 2 weeks) was “white”, the “HPLC Sum of impurities” value ([1]; Daylight, 2 weeks) was 0.75 and the Appearance ([1]; Daylight, 4 weeks) was “almost”. The “HPLC Sum of impurities” value ([1]; Daylight, 4 weeks) was 0.85, the Appearance ([1]; Daylight, 8 weeks) was “slightly” and the “HPLC Sum of impurities” value ([1]; Daylight, 8 weeks) was 0.91. For the same substance, the Appearance ([1]; RT/75% RH, 4 weeks) was “white”, the “HPLC Sum of impurities” value ([1]; RT/75% RH, 4 weeks) was 0.72 and the Appearance ([1]; RT/75% RH, 8 weeks) was “white”. For the same substance, the “HPLC Sum of impurities” value ([1]; RT/75% RH, 8 weeks) was 0.80, the Appearance ([1]; RT/<5% RH, 4 weeks) was “white” and the “HPLC Sum of impurities” value ([1]; RT/<5% RH, 4 weeks) was 0.73. For the same substance, the Appearance ([1]; RT/<5% RH, 8 weeks) was “white”, the “HPLC Sum of impurities” value ([1]; RT/<5% RH, 8 weeks) was 0.75 and the Appearance ([1]; Reference (2 weeks)) was “white”. The “HPLC Sum of impurities” value ([1]; Reference (2 weeks)) was 0.72, the chemical stability ([1]; storage 2, 4 and 8 weeks under different conditions, listed as tartrate salt) was “showed a sensitivity towards 40° C./70% RH and light; also recorded: shows sensitivity towards higher humidities and light” and the Appearance ([2]; 0 days) was “white”. For the same substance, the “DSC Max” value ([2]; 0 days) was 158.8 °C, the “DSC ΔH” value ([2]; 0 days) was 85.9 J/g and the TGA <100° C. ([2]; 0 days) was 0%. The crystallographic stability ([2]; storage two weeks under different relative humidities, listed as tartrate salt) was “crystallographic stable; also recorded: crystallographically stable”, the Appearance ([2]; two weeks, RT/56% RH) was “white” and the “DSC Max” value ([2]; two weeks, RT/56% RH) was 159.0 °C. For the same substance, the “DSC ΔH” value ([2]; two weeks, RT/56% RH) was 86.2 J/g, the IR ([2]; two weeks, RT/56% RH) was “~Ref” and the TGA <100° C. ([2]; two weeks, RT/56% RH) was 0.1%. For the same substance, the Appearance ([2]; two weeks, RT/75% RH) was “white”, the “DSC Max” value ([2]; two weeks, RT/75% RH) was 159.0 °C and the “DSC ΔH” value ([2]; two weeks, RT/75% RH) was 85.5 J/g. The TGA <100° C. ([2]; two weeks, RT/75% RH) was 0%, the Appearance ([2]; two weeks, RT/<5% RH) was “white” and the “DSC Max” value ([2]; two weeks, RT/<5% RH) was 160.3 °C. The “DSC ΔH” value ([2]; two weeks, RT/<5% RH) was 86.4 J/g, the TGA <100° C. ([2]; two weeks, RT/<5% RH) was 0% and the “water adsorption/desorption behaviour (weight change as a function of relative humidity)” value [3] was “less stable but the weight change as a function of the relative humidity is very small; also recorded: good adsorption desorption profile”.
